Measurements: paper PMC7586386, “Discovery of Covalent Inhibitors Targeting the Transcriptional Enhanced Associate Domain Central Pocket” (Journal of Medicinal Chemistry, 2020)

Experiments:
[1] = biological target: T1, hTEAD2 (Homo sapiens, UniProt Q15562); experiment: Thiol conjugation assay, TEAD homologues; type: binding; conditions: read-out: TEAD2 IC50
T1 construct: N-terminal His6-tagged hTEAD4^217–447 was subcloned; His6 (N); made in house; host or cells: E. coli (as described for N-His hTEAD4)
T1 sequence (Q15562 217-447): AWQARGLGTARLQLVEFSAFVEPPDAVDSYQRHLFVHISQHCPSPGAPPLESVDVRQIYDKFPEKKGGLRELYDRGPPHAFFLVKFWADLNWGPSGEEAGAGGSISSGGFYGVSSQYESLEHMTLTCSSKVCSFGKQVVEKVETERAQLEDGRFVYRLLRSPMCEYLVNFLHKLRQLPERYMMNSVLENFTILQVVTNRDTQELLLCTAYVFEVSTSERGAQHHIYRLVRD
Description: (§1) To serially diluted solutions of the tested compounds in 5 μL of assay buffer [HEPES (25 mM) and NaCl (150 mM) pH 6.5], freshly prepared 5 μL of 0.45 μM protein solution was added and incubated at room temperature for 10 min, followed by addition of 5 μL of 0.45 μM CPM solution, giving a 15 μL final assay volume, 150 nM protein, and 150 nM CPM. The assay plate was shaken at room temperature for 1 h before measuring the fluorescence (Ex/Em: 380/470 nm). Compound 19 was used as an internal standard to determine 100% inhibition.

[2] = biological target: T2, hTEAD3 (Homo sapiens, UniProt Q99594); experiment: Thiol conjugation assay, TEAD homologues; type: binding; conditions: read-out: TEAD3 IC50
T2 construct: N-terminal His6-tagged hTEAD4^216–434 was expressed; His6 (N); made in house
T2 sequence (Q99594 216-434): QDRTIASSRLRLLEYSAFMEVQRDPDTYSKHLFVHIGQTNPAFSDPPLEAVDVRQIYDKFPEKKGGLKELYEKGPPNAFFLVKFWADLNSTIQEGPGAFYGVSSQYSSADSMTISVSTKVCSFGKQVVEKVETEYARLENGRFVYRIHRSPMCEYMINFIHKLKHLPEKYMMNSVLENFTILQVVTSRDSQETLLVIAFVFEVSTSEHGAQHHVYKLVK
Description: as §1

[3] = biological target: T3, mTEAD4 (nonacylated) (Mus musculus, UniProt Q62296); experiment: 1H–15N HSQC NMR; type: binding; conditions: 0.5 mM compound, versus DMSO
T3 construct: made in house
T3 sequence (Q62296 210-427 limits assumed): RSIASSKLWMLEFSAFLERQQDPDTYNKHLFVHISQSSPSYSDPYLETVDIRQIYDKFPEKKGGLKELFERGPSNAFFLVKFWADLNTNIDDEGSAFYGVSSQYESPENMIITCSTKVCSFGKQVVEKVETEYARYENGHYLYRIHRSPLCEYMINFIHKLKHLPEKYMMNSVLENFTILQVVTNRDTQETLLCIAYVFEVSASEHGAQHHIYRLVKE
Description: The ^13C/^15N-labeled mTEAD4 was prepared following a protocol established earlier,[45] and the protein was deacylated as described above for hTEAD4. ^1H–^15N HSQC spectra in the presence of DMSO or the test compound (0.5 mM) were collected at 37 °C on a Bruker 600 MHz magnet equipped with a cryoprobe in 20 mM HEPES, pH 7.3 buffer containing 150 mM NaCl and 1 mM DTT. The spectra were processed and overlaid.

[4] = biological target: T4, hTEAD4 (nonacylated) (Homo sapiens, UniProt Q15561); experiment: Time-dependent inhibition, FP (central pocket binding) assay
T4 construct: N-terminal His6-tagged hTEAD4^217–434 was subcloned; made in house; host or cells: Escherichia coli BL21-CodonPlus (DE3)-RIPL
T4 sequence (Q15561 217-434): as the sequence (Q62296 210-427 limits assumed) above, with I3V, R19Q, S35G, T48A, E67D, D91E, A96S, L142S counted along it
Description: To serially diluted solution of the tested compounds in 5 μL assay buffer [HEPES (25 mM) and NaCl (150 mM), pH 6.5 buffer], freshly prepared 5 μL of 0.15 μM protein solution was added and incubated at room temperature for 10 min followed by 5 μL of 30 nM FITC-palmitate solution, giving 15 μL final assay volume, 50 nM protein, and 10 nM tracer. The assay plate was shaken at room temperature for 1 h before measuring the FP (Ex/Em: 485/535 nm).
(§2) TDI of hTEAD4 (nonacylated) by compound 19 was monitored in FP (central pocket binding) and thiol conjugation assays at 5–7 different concentrations (0.15–40 μM) following 1, 2, 4, and 24 h incubation at 4 °C (mean ± SD; n = 2). By fitting the percent of inhibition versus preincubation time at different concentrations, kobs was calculated. Next, kobs was plotted against concentration and was further fitted to a nonlinear regression model to determine the kinetic parameters of covalent inhibition of hTEAD4, where plateau is showing kinact (min^–1) and t1/2 is Ki (μM).

[5] = biological target: T5, mTEAD4 Cys360Ala with YAP (Mus musculus, UniProt Q62296, C360A); experiment: FP-based competitive TEAD–YAP interaction assay (FITC-hYAP50–100); type: binding
T5 construct: N-terminal His6- and MBP-tagged mTEAD4^209–427 with Cys360Ala mutation; made in house; host or cells: E. coli BL21-CodonPlus (DE3)-RIPL
T5 sequence (Q62296 209-427 C360A): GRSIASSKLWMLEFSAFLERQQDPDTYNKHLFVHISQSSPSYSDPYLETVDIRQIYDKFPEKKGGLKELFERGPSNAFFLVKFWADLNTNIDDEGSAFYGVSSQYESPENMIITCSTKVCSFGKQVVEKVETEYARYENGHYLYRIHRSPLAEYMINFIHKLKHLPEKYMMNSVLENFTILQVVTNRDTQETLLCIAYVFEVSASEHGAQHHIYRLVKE
Description: (§3) All the TEAD–YAP binding experiments were performed in phosphate-buffered saline (PBS) (pH 7.5).
(§4) To serially diluted solution of the tested compounds in 5 μL of PBS, freshly prepared 5 μL of protein solution was added and incubated at room temperature for 10 min followed by addition of 5 μL of FAM-YAP^50–100 solution. The assay plate was shaken at room temperature for 1 h before measuring the FP (Ex/Em: 485/535 nm). Final protein and FAM concentrations are as follows (FAM/protein): hTEAD4 (nonacylated): 2 nM/5 nM, hTEAD4 (acylated): 3 nM/15 nM, mTEAD4_Cys360Ser: 10 nM/50 nM, and mTEAD4_Cys360Ala: 10 nM/50 nM.

[6] = biological target: T6, hTEAD4 (acylated) with YAP (Homo sapiens, UniProt Q15561); experiment: as above; type: binding
T6 construct: N-terminal His6-tagged hTEAD4^217–434 was subcloned; made in house; host or cells: Escherichia coli BL21-CodonPlus (DE3)-RIPL
T6 sequence (Q15561 217-434): as the sequence (Q62296 210-427 limits assumed) above, with I3V, R19Q, S35G, T48A, E67D, D91E, A96S, L142S counted along it
Description: as §3, §4

[7] = biological target: T7, mTEAD4 Cys360Ser with YAP (Mus musculus, UniProt Q62296, C360S); experiment: as above; type: binding
T7 construct: His (N); made in house
T7 sequence (Q62296 210-427 C360S limits assumed): as the sequence (Q62296 210-427 limits assumed) above, with C151S counted along it
Description: as §3, §4

[8] = biological target: T4, hTEAD4 (nonacylated); experiment: Time-dependent inhibition, thiol conjugation assay; type: binding
Description: as §1, §2

[9] = biological target: T4, hTEAD4 (nonacylated); experiment: Differential scanning fluorimetry; type: binding; conditions: 20 μM protein, 80 μM inhibitor; value is a decrease
Description: Nonacylated hTEAD4 (20 μM) was incubated in the absence or presence of inhibitors (80 μM) at 25 °C for 10 min. Then, SYPRO orange (Sigma-Aldrich) at a final concentration of 5× was added and the mixture was heated at a ramp rate of 1 °C/min in a qPCR machine (Applied Biosystems). The derivative of the SYPRO orange fluorescent intensity is plotted as a function of temperature.

[10] = biological target: T8, hTEAD4 (acylated) (Homo sapiens, UniProt Q15561); experiment: Whole-protein ESI–MS of covalent modification; type: binding; conditions: hTEAD4 not treated with hydroxylamine
T8 construct: N-terminal His6-tagged hTEAD4^217–434 was subcloned; made in house; host or cells: Escherichia coli BL21-CodonPlus (DE3)-RIPL
T8 sequence (Q15561 217-434): as the sequence (Q62296 210-427 limits assumed) above, with I3V, R19Q, S35G, T48A, E67D, D91E, A96S, L142S counted along it
Description: (§5) The protein solution (1 μL 5 μM) was injected to UPLC-MS (ThermoScientific_UltiMate 3000 LC coupled to a Velos Pro MS) through a desalting column (MassPREP Online desalting, 2.1 × 10 mm). For reactions, 1 μM of the protein was incubated at room temperature for 1 h with 8 equiv of the compound in HEPES (25 mM) and NaCl (150 mM) pH 6.5 buffer. Then, the mixture was centrifuged before injecting 5 μL. The deconvolution of m/z values was performed using Promass Xcalibur software.

[11] = biological target: T4, hTEAD4 (nonacylated); experiment: Whole-protein ESI–MS of covalent modification; type: binding; conditions: 8 equiv of compound, 1 h, rt
Description: as §5

O=c1cc(CO)oc(C(Nc2ccccc2)c2ccccc2)c1O (centres unmarked) [Compound 19, 3-Hydroxy-6-(hydroxymethyl)-2-(phenyl(phenylamino)methyl)-4H-pyran-4-one]
IC50 [1]: 6.9 µM | IC50 [2]: 4.6 µM | effect on 1H–15N HSQC spectrum [3]: induced line broadening of several residues | kinact/KI ([4]; FP assay): 66.7 M⁻¹ s⁻¹ | kinact ([4]; FP, read-out: kinact (converted)): 0.0015 s⁻¹ | kinact ([4]; supplementary CSV, read-out: Kinact Fluorescence Polarization (converted)): 0.00015 s⁻¹ | inhibition of the interaction of YAP with TEAD [5]: did not inhibit | inhibition of the interaction of YAP with TEAD [6]: did not inhibit | inhibition of the interaction of YAP with TEAD [7]: did not inhibit | kinact ([8]; supplementary CSV): 0.000333 s⁻¹ | kinact/KI ([8]; thiol conjugation assay): 138 M⁻¹ s⁻¹ | lowering of the melting point (Tm) [9]: 5 °C | adduct formation with acylated protein (whole-protein ESI–MS) [10]: did not result in the formation of an acylated hTEAD4-19 adduct | modification of the protein (whole-protein ESI–MS) [11]: modification of the protein (+230 Da) was observed
